pIC50: −log10 of the molar value. Each block holds one molecule with its values, some of them ahead of it.
Columns and labels:
KDM4B = target: T1, KDM4B (Homo sapiens, UniProt O94953); experiment: KDM4B enzymatic inhibition (residual activity, IC50, kinetics); type: biochemical; details: for Inhibitory effects of Myricetin analogues against KDM4B activity: Table 1 (not given), 100 μM compounds
T1 sequence (O94953 1-1096): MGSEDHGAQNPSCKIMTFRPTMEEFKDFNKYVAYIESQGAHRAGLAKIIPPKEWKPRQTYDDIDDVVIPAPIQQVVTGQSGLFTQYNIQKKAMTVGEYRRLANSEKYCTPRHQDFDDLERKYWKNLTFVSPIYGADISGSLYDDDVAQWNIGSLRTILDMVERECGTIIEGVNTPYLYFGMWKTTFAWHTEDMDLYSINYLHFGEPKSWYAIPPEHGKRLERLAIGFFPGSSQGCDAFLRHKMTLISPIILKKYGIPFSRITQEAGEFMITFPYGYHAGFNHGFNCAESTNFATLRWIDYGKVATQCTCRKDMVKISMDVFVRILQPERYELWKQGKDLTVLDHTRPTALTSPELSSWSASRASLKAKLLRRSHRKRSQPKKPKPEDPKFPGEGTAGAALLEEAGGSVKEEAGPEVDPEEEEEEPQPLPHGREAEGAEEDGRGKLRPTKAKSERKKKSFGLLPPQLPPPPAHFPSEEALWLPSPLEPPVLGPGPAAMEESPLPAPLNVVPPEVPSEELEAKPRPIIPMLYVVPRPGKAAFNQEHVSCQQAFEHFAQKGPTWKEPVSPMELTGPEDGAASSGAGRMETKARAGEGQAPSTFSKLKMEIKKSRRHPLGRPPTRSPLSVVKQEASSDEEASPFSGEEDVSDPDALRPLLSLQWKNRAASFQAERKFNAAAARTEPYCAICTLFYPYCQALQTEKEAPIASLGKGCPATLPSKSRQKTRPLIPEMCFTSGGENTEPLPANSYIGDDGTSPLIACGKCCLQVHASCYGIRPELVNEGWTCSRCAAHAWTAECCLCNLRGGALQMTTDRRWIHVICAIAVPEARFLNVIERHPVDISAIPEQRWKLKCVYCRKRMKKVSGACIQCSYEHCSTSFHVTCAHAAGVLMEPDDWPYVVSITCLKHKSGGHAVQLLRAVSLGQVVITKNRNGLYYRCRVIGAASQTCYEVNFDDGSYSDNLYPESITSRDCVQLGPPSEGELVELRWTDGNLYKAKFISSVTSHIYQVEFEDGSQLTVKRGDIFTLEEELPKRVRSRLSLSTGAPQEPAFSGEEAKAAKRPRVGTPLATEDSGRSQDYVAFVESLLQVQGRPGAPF

JMJD2E/KDM4E = target: T2, JMJD2E/KDM4E (Homo sapiens, UniProt B2RXH2); details: in vitro, literature; cited from earlier work
T2 sequence (B2RXH2 1-506): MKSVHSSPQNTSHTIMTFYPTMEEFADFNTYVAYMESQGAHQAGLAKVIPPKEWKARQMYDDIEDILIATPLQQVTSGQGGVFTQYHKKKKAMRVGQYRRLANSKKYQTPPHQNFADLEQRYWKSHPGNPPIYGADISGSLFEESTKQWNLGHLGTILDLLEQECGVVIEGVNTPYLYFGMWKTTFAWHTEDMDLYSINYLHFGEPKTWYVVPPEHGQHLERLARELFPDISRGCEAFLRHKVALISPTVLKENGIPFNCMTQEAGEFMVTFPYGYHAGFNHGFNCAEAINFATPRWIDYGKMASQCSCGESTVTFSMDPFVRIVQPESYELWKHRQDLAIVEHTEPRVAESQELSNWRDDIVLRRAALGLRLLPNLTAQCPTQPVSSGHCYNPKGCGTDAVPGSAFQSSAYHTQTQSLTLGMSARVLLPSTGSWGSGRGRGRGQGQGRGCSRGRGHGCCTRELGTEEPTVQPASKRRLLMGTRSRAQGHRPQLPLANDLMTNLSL

[1] = literature; cited from earlier work
herpes virus = details: literature; cited from earlier work
KDM4C [2] = target: T3, KDM4C (Homo sapiens, UniProt Q9H3R0); experiment: H3 demethylation by bacteria-expressed KDM4C, western blot; type: biochemical; details: 100 μM inhibitor, 10 μM enzyme, 5 μM H3, 37° C., 30 min
T3 sequence (Q9H3R0 1-1056): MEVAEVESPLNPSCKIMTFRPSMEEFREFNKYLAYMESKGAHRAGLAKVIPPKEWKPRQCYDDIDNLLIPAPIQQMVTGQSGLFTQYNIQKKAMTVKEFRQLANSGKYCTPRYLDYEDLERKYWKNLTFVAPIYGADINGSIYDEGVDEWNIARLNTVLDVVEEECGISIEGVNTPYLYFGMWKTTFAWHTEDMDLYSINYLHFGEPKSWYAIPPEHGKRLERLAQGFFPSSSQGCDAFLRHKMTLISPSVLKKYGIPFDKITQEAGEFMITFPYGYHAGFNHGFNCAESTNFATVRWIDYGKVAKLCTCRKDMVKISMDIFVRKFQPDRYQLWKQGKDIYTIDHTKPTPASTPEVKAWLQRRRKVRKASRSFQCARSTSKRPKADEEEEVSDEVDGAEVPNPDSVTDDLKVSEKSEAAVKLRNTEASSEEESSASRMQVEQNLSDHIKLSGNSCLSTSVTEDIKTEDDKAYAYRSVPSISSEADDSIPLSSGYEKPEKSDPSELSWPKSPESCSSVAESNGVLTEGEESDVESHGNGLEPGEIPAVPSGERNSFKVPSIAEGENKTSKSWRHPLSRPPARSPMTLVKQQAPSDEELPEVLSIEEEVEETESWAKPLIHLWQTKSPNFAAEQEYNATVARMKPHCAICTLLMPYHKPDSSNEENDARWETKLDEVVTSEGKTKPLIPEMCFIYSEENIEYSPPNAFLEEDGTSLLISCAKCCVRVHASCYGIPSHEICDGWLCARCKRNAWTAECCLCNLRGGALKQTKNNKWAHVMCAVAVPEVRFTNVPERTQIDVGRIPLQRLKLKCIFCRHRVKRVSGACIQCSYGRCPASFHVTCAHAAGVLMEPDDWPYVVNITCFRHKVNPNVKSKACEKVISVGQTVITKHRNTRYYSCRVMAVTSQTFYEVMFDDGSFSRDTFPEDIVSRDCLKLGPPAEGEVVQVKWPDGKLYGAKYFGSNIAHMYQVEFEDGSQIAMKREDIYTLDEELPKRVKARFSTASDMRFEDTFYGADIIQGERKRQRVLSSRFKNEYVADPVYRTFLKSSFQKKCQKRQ

LNCaP cells = experiment: MTT cell growth assay, LNCaP; type: cell-based; details: different concentrations over 4 days
Excerpt: (§1) Whether Myricetin blocked cell growth of AR+ cells was next evaluated.

C4-2B cells [3] = experiment: MTT cell proliferation assay, C4-2B; type: cell-based; details: different concentrations over 4 days
Excerpt: as §1

PZ-HPV-7 cells = experiment: MTT assay, immortalized normal PZ-HPV-7; type: cell-based; details: different concentrations over 4 days
Excerpt: as §1

[4] = tested on: H3K9me3/H3K36me3 in C4-2B cells; experiment: H3K9me3 and H3K36me3 levels in treated C4-2B cells, western blot; type: cell-based; details: treated for two days, cell lysates
Excerpt: FIG. 5B: H3K9me3 and H3K36me3 levels in Myricetin-treated C4-2B cells for two days. The H3K9me3 and H3K36me3 signals are detected in cell lysates by western blot analysis.
as §1

C4-2B xenografts [5] = experiment: C4-2B xenograft tumor growth in nude mice; type: in vivo; details: C4-2B xenograft model
KDM4C [6] = target: T3, KDM4C; details: toward α-ketoglutarate, FIG. 2A
C4-2B cells [7] = tested on: C4-2B cells
C4-2B cells [8] = experiment: Cell viability of C4-2B, PLGA-Myricetin versus free Myricetin; details: read-out: IC50, cell viability (cytotoxicity) of C4-2B cells
C4-2B xenografts [9] = experiment: Ki-67 and CD31 immunohistochemistry of xenograft tumor sections; type: in vivo, nude mice; details: FIG. 7B
Experimental: FIG. 7B: Ki-67 and CD31 immunohistochemistry staining of the tumor sections isolated from the xenografts.
The endothelial cell-specific marker CD31 in xenografts was also determined.

- Inhibitory effects of Myricetin analogues against KDM4B activity (KDM4B): significant inhibitory effects
Compound: O=c1c(O)c(-c2ccc(O)c(O)c2)oc2c(O[C@@H]3O[C@H](CO)[C@@H](O)[C@H](O)[C@H]3O)c(O)cc(O)c12 [Gossypin]

Compound: COc1cc(-c2oc3cc(O)cc(O)c3c(=O)c2O)ccc1O [Isorhamnetin]
- Inhibitory effects of Myricetin analogues against KDM4B activity (KDM4B): significant inhibitory effects

- Inhibitory effects of Myricetin analogues against KDM4B activity (KDM4B): significant inhibitory effects
Compound: O=c1c(O)c(-c2ccc(O)cc2)oc2cc(O)cc(O)c12 [Kaempferol]

Compound: CN(C)CCCNC(=O)c1ccc(-c2cc(O)c3ncccc3c2)cc1 [ML324]
- Inhibitory activity toward JMJD2E/KDM4E (JMJD2E/KDM4E): submicromolar
- Cell permeability [1]: good
- In vitro ADME properties [1]: good
- KDM4A-dependent herpes virus-mediated replication in infected cells (herpes virus): blocked

Compound: O=c1c(O)c(-c2cc(O)c(O)c(O)c2)oc2cc(O)cc(O)c12 [Myricetin]
- pIC50 (KDM4B): 5.89
- Enzymatic inhibitory kinetics, mode (KDM4B) (KDM4B; toward α-ketoglutarate, FIG. 2A): competitive inhibition mode
- Demethylation of H3K9me3 by KDM4C (KDM4C [2]): significantly reduced such an activity
- Cell growth of LNCaP (LNCaP cells): significantly reduced level of cell growth
- Cell proliferation of C4-2B (C4-2B cells [3]): blocked
- Effect on immortalized normal PZ-HPV-7 line (PZ-HPV-7 cells): essentially no effect
- H3K9me3 level in C4-2B cells [4]: dose-dependent increased level
- H3K36me3 signal in C4-2B cells [4]: relatively comparable signal
- Antitumor activity compared with the vehicle control group (C4-2B xenografts [5]): significant antitumor activity
- Enzymatic inhibitory kinetics, mode (KDM4C) (KDM4C [6]): competitive mode
- Cytotoxic effect alone, compared with enzalutamide alone (C4-2B cells [7]): better cytotoxic effect
- pIC50 (C4-2B cells [8]): 4.42

Compound: O=c1c(O)c(-c2ccc(O)c(O)c2)oc2cc(O)cc(O)c12 [Quercetin]
- Inhibitory effects of Myricetin analogues against KDM4B activity (KDM4B): significant inhibitory effects

Compound: CNC(=O)c1ccc(N2C(=S)N(c3ccc(C#N)c(C(F)(F)F)c3)C(=O)C2(C)C)cc1F [enzalutamide]
- Antitumor activity compared with the vehicle control group (C4-2B xenografts [5]): significant antitumor activity
- Endothelial cell-specific marker CD31 in xenografts (C4-2B xenografts [9]): significantly higher level of CD31 was seen in the vehicle group
- Expression of proliferation marker Ki-67 in xenografts (C4-2B xenografts [9]): significantly lower expression
